Numbering of substitutions follows the chain as printed.
Columns and labels:
Assay type in all cases: cell-based
[1] = molecular target: T1, P2X1 receptor mutant KAKRK → EADRK(2) (Homo sapiens, UniProt P51575, K136E/K138D); assay: Two-electrode voltage clamp, P2X1 mutant X1-EADRK
T1 sequence (P51575 1-399 K136E/K138D): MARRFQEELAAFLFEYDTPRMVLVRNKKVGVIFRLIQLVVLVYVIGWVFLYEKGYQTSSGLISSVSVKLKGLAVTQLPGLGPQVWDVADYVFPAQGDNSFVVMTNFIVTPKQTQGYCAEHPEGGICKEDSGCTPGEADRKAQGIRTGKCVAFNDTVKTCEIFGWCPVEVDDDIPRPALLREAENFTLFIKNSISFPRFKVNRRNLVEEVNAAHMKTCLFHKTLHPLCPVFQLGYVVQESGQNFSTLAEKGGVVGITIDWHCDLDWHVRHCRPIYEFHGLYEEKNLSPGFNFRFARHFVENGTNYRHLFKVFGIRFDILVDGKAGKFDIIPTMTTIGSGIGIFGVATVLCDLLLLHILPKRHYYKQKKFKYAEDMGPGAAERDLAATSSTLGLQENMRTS

[2] = molecular target: T2, P2X1 receptor mutant K138D (Homo sapiens, UniProt P51575, K138D); assay: Two-electrode voltage clamp, P2X1 mutant K138D
T2 sequence (P51575 1-399 K138D): T1 sequence (P51575 1-399 K136E/K138D) with E136K

P2X1 Cys2(1-6) chimera = molecular target: T3, P2X1 Cys2(1-6) chimera (Homo sapiens, UniProt P51575, A118P/A137L/A141G/A151Y/D154G/DEL120-123/E128S/F152Y/G124S/G131D/I144L/I161V/INS125RVHNAT/INS150P/K127L/K136E/K138D/K140L/K148R/N153Q/P134A/Q142N/R139M/S130A/T133V/T155P/V156S); assay: Two-electrode voltage clamp, chimera P2X1 Cys2; conditions: P2X1 Cys2(1–6)
T3 sequence (P51575 with tags, fused parts or gaps A118P/DEL120-123/G124S/INS125RVHNAT/K127L/E128S/S130A/G131D/T133V/P134A/K136E/A137L/K138D/R139M/K140L/A141G/Q142N/I144L/K148R/INS150P/A151Y/F152Y/N153Q/D154G/T155P/V156S/I161V): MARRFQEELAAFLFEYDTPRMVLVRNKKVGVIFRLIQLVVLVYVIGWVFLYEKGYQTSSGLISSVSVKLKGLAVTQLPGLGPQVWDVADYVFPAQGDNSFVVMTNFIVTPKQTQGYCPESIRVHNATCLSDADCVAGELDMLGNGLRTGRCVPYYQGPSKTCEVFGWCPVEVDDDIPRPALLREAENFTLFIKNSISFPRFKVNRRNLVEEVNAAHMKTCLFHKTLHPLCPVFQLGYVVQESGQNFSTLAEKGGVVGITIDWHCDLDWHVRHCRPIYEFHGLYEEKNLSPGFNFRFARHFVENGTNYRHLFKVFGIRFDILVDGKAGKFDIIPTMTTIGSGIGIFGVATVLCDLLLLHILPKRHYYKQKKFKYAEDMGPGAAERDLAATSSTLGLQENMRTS

[3] = molecular target: T4, P2X1 receptor mutant KAKRK → EADML(4) (Homo sapiens, UniProt P51575, K136E/K138D/K140L/R139M); assay: Two-electrode voltage clamp, P2X1 mutant X1-EADML
T4 sequence (P51575 1-399 K136E/K138D/R139M/K140L): T1 sequence (P51575 1-399 K136E/K138D) with R139M, K140L

O=C(Nc1cc(C(=O)Nc2ccc(S(=O)(=O)O)cc2S(=O)(=O)O)cc(C(=O)Nc2ccc(S(=O)(=O)O)cc2S(=O)(=O)O)c1)Nc1cc(C(=O)Nc2ccc(S(=O)(=O)O)cc2S(=O)(=O)O)cc(C(=O)Nc2ccc(S(=O)(=O)O)cc2S(=O)(=O)O)c1 [NF449, 4,4′,4′′,4′′′-(carbonylbis(imino-5,1,3-benzenetriyl-bis(carbonylimino)))tetrakis-benzene-1,3-disulphonic acid]
Extra decrease in NF449 sensitivity compared with the K138D mutant [1]: ~15 fold
Reduction in NF449 sensitivity compared with P2X1 WT [2]: ~10 fold
Reduction in NF449 sensitivity compared with P2X1 WT (P2X1 Cys2(1-6) chimera): ~300 fold
Hill slope of NF449 inhibition curve (P2X1 Cys2(1-6) chimera; vs EC90 ATP): 1.38 ± 0.07
Reduction in NF449 sensitivity compared with WT P2X1 [3]: ~600 fold
